Source: patent US12492223B2, “Peptide compositions capable of binding lanthionine synthetase C-like protein (LanCl) and uses thereof” (priority 2021, dated 2025)
Where two headings read alike, the source gives them in different places. Positions of bridges follow the written chain, without caps; N, C: chain ends. No end group written: not given here.

Experiments:
HKx31 (H3N2) = type: in vivo, mice; set-up: key to PMN activity score / Viral titre activity score / BAL IL-6 activity score: 0: inactive; 1: less active than the peptide of SEQ ID NO:38; 2: comparable or more active than the peptide of SEQ ID NO:38; conditions: for IL-6 levels in the BAL fluid / viral titres: 10 mg/kg single dose
A549 cells = assay: A549 proliferation + stress assay (restoration of viability of Taxol-treated cells, CellTiter-Glo); type: cell-based, human; set-up: key to Estimated Activity in A549 proliferation + stress assay: Inactive: no activity up to 100 μM; WEAK: some or variable restoration of cell viability at 50-100 μM; MODERATE: moderate dose-dependent restoration of cell viability at >25 μM; STRONG: clear dose-dependent restoration of cell viability from 1-5 μM upwards; conditions: 350 μM Taxol, 16 hours, peptide 1-100 μM
Description: An assay was developed that involves stressing cells with a dose of the chemotherapeutic agent, Taxol, that causes a 50% inhibition of cell viability when compared to untreated cells. Peptides were then added to the cell cultures at increasing concentrations to assess their ability to restore the viability of the Taxol-treated cells.
Briefly, A549 cells were cultured in opaque-walled multiwell plates with 50000 A549 cells/well in culture medium (DMEM medium ref 11960-044 Thermoscientific, +10% FBS ref 10270-106 Gibco, Thermoscientific, +1% Na pyruvate ref S8636-100 ML, Sigma, +1%, Glutamax ref35050061, Thermoscientific, +1% Penicillin-Streptomycin, ref 11074440001, Sigma) 100 μl per well for 96-well plates. Control wells containing medium without cells were used to obtain a value for background luminescence. Cells were incubated at 37° C. in 5% CO2 overnight.
100 μL of medium+DMSO+peptides or medium+Taxol+peptides (at the different concentrations) were added to each well and incubated for 16 hours at 37° C. 5% CO2.
Cell morphology, viability and confluency were assessed by phase contrast microscopy. The CellTiter-Glo® Luminescent Cell Viability Assay (G7571, Promega—a homogeneous method to determine the number of viable cells in culture based on quantitation of the ATP present) was then used to quantify the number of metabolically active cells, according to the manufacturer's instructions. 100 μl volume of CellTiter-Glo® Reagent was added to the 100 μL volume of cell culture medium present in each well, Contents were mixed for 2 minutes on an orbital shaker to induce cell lysis and after incubating the plates at room temperature for 10 minutes to stabilize luminescent signal luminescence was recorded with an integration time of 0.5 seconds using a CLARIOstar multi well luminometer (BMG Labtech)

[1] = single 10 mg/kg dose, day 3, relative to SEQ ID NO:38
[2] = PMN infiltrate in BAL fluid, […], relative to SEQ ID NO:38, 10 mg/kg

Substance	BAL IL-6 activity score (HKx31 (H3N2); IL-6 in BAL fluid, single 10 mg/kg dose, relative to SEQ ID NO:38)	PMN activity score (HKx31 (H3N2); mouse, in vivo, 10 mg/kg)	reducing the PMN infiltrate in BAL fluid, compared with the peptide of SEQ ID NO:38 (HKx31 (H3N2); single 10 mg/kg dose)	Viral titre activity score (HKx31 (H3N2); [1])	IL-6 levels in the BAL fluid (HKx31 (H3N2))	PMN activity score (HKx31 (H3N2); [2])	BAL IL-6 activity score (HKx31 (H3N2); mouse, in vivo, 10 mg/kg)	Viral titre activity score (HKx31 (H3N2); mouse, in vivo, 10 mg/kg)	viral titres (HKx31 (H3N2); day 3)	Estimated Activity in A549 proliferation + stress assay (A549 cells)
57 (RSVE) [compound 57]	0	1	relatively less effective	0	–	–	–	–	–	–
44 (HIVESS) [compound 44]	–	–	did not show any changes	–	as effective	0	2	1	–	–
52 (PALNTS) [compound 52]	–	–	did not show any changes	–	as effective	0	2	2	effective	–
47 (RAVESS) [compound 47]	–	–	–	–	as effective	0	2	1	–	–
29 (RIIHNN) [compound 29]	–	2	as effective	–	as effective	–	2	2	effective	–
56 (RSVEG) [compound 56]	–	2	as effective	–	as effective	–	2	2	effective	–
50 (RALQSS) [compound 50]	–	1	relatively less effective	–	as effective	–	2	2	effective	–
49 (RALNST) [compound 49]	–	–	–	0	as effective	0	2	–	–	–
8 (CSGRVSECGF; disulfide 1-8) [compound 8]	–	–	–	–	–	–	–	–	–	Inactive
